From patent US20020022826A1, “Burst electrode” (priority 2000, published 2002)

Details: bare metal electrodes, nitrogen atmosphere
Excerpt: Using stainless steel electrodes in aqueous NaPSS electrolyte, conditions were developed for the reproducible synthesis, loading, and release of bioactive cations from PPy/PSS films. After PPy/PSS film preparation, the polymer-modified electrodes were removed from the electrolyte, washed with water, and their redox properties studied by cyclic voltammetry (CV).

- potential at which dopamine oxidizes: +0.6 V vs. Ag/AgCl
SMILES: NCCc1ccc(O)c(O)c1 [Dopamine, dopamine]
